US11939314B2, “Quinolin-2-one derivatives” (MERCK PATENT GMBH, priority 2016, dated 2024)
pIC50: −log10 of the molar value. Counter-ions that a name gives are not always drawn.

Assays:
[1] = molecular target: T1, PDGFRalpha(V561D) (Homo sapiens, UniProt P16234, V561D); test: PDGFRalpha(V561D) assay; type: biochemical; conditions: recombinant human PDGFRalpha aa 550-end, 200 μM ATP, 1.4E-06 means 1.4×10^−6, read-out: Inhibition (IC50) of PDGFRα (V561D)
T1 construct: recombinant human PDGFRalpha, amino acids 550end containing the V561 D mutation; 6His (N)
T1 sequence (P16234 550-1089 V561D): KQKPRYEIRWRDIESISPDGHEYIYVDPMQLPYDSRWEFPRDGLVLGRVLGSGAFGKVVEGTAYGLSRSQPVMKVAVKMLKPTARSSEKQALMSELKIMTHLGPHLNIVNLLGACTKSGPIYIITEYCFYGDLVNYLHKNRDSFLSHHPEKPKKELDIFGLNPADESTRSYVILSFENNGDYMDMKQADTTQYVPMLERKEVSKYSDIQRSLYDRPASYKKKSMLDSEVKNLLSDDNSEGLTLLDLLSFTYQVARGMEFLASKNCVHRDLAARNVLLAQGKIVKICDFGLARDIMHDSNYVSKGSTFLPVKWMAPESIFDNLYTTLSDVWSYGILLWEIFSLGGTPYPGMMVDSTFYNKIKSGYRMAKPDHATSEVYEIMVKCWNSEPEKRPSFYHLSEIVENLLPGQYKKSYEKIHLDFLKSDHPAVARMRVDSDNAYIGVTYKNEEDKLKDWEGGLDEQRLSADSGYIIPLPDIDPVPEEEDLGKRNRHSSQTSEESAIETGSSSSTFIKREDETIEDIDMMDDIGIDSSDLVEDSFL
Summary of the method: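 Radiometric filter-binding assay: substrate phosphorylation by recombinant N-His-tagged human PDGFRα 550-end V561D was quenched with 3% phosphoric acid after 40 min at room temperature, then counted.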

[2] = molecular target: T2, c-Kit(V654A) (Homo sapiens, UniProt P10721, V654A); test: c-Kit(V654A) assay; type: biochemical; conditions: recombinant human c-Kit aa 544-end, 200 μM ATP, 1.4E-06 means 1.4×10^−6, read-out: Inhibition (IC50) of c-KIT (V654A)
T2 construct: amino acids 544-end containing the V654A mutation; GST (N)
T2 sequence (P10721 544-976 V654A): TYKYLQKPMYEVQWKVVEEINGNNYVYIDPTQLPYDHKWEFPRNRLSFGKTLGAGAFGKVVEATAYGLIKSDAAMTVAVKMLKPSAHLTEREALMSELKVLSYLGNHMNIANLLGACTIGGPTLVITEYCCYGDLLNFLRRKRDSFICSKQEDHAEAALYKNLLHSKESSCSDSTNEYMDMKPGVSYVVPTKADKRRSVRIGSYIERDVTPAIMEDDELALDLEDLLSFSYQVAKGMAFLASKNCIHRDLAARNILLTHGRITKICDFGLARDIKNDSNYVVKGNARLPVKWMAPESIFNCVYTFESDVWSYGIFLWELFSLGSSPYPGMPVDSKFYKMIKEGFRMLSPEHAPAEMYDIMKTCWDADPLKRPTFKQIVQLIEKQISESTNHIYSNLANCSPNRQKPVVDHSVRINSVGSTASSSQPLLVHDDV
Summary of the method: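 Radiometric filter-binding read-out: substrate 33P incorporation counted by scintillation after P30 filtermat washes in 75 mM phosphoric acid and methanol. Enzyme: N-GST recombinant human c-Kit aa 544-end carrying V654A.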

| SMILES | pIC50 [1] | pIC50 [2] |
| --- | --- | --- |
| Cc1cc(C(=O)N2CCOCC2)ccc1-n1cc(-c2cc3ccccc3[nH]c2=O)nn1 [A35, 3-{1-[2-methyl-4-(morpholine-4-carbonyl)-phenyl]-1H-[1,2,3]triazol-4-yl}-1H-quinolin-2-one] | 7.31 | 6.19 |
| CN(C)C[C@H]1CCCN1C(=O)c1ccc(-n2cc(-c3cc4cc(F)ccc4[nH]c3=O)nn2)cc1 [A321, 3-{1-[4-((R)-2-dimethylaminomethyl-pyrrolidine-1-carbonyl)-phenyl]-1H-[1,2,3]triazol-4-yl}-6-fluoro-1H-quinolin-2-one] | 6.43 | 7.36 |
| O=C1OCCN1c1ccc(-n2cc(-c3cc4cc(F)ccc4[nH]c3=O)nn2)cc1 [A98, 6-fluoro-3-{1-[4-(2-oxo-oxazolidin-3-yl)-phenyl]-1H-[1,2,3]triazol-4-yl}-1H-quinolin-2-one] | 7.12 | 6.74 |
| CN[C@@H]1CCN(C(=O)c2ccc(-n3cc(-c4cc5cc(F)ccc5[nH]c4=O)nn3)cc2)C1 [A311, 6-Fluoro-3-{1-[4-((R)-3-methylamino-pyrrolidine-1-carbonyl)-phenyl]-1H-[1,2,3]triazol-4-yl}-1H-quinolin-2-one hydrochloride] | 6.51 | 7.68 |
| O=c1[nH]c2ccncc2cc1-c1cnn(-c2ccccc2)c1 [A46, 3-(1-phenyl-1H-pyrazol-4-yl)-1H-[1,6]naphthyridin-2-one] | 6.82 | 6.43 |
| COCCO[C@H]1CCN(C(=O)c2ccc(-n3cc(-c4cc5cc(F)ccc5[nH]c4=O)nn3)cc2)C1 [A251, 6-fluoro-3-(1-{4-[(S)-3-(2-methoxy-ethoxy)-pyrrolidine-1-carbonyl]-phenyl}-1H-[1,2,3]triazol-4-yl)-1H-quinolin-2-one] | 6.40 | 6.80 |
| CO[C@H]1CC[C@@H](Oc2ccc(-n3cc(-c4cc5cc(F)ccc5[nH]c4=O)nn3)cc2)C1 (stereo in doubt) [A355, 6-Fluoro-3-{1-[4-((trans)-3-methoxy-cyclopentyloxy)-phenyl]-1H-[1,2,3]triazol-4-yl}-1H-quinolin-2-one] | 5.80 | 7.05 |
| CN1CCN(CCCOc2ccc(-n3cc(-c4cc5cc(F)c(F)cc5[nH]c4=O)nn3)cc2)CC1 [A162, 6,7-difluoro-3-(1-{4-[3-(4-methyl-piperazin-1-yl)-propoxy]-phenyl}-1H-[1,2,3]triazol-4-yl)-1H-quinolin-2-one] | 7.01 | 7.09 |
| O=C(c1ccc(-n2cc(-c3cc4cc(F)ccc4[nH]c3=O)nn2)cc1)N1CCN[C@@H](CO)C1 [A314, 6-fluoro-3-{1-[4-((R)-3-hydroxymethyl-piperazine-1-carbonyl)-phenyl]-1H-[1,2,3]triazol-4-yl}-1H-quinolin-2-one hydrochloride] | 6.74 | 7.14 |
| CO[C@@H]1C[C@@H](CO)N(C(=O)c2ccc(-n3cc(-c4cc5cc(F)ccc5[nH]c4=O)nn3)cc2)C1 [A241, 6-fluoro-3-{1-[4-((2S,4R)-2-hydroxymethyl-4-methoxy-pyrrolidine-1-carbonyl)-phenyl]-1H-[1,2,3]triazol-4-yl}-1H-quinolin-2-one] | 6.54 | 7.00 |
| CN[C@H]1CCN(C(=O)c2ccc(-n3cc(-c4cc5cc(F)ccc5[nH]c4=O)nn3)cc2)C1 [A312, 6-fluoro-3-{1-[4-((S)-3-methylamino-pyrrolidine-1-carbonyl)-phenyl]-1H-[1,2,3]triazol-4-yl}-1H-quinolin-2-one hydrochloride] | 6.54 | 7.21 |
| O=C(c1ccc(-n2cc(-c3cc4cc(F)ccc4[nH]c3=O)nn2)cc1)N1C[C@H](O)C[C@H]1CO [A227, 6-fluoro-3-{1-[4-((2S,4R)-4-hydroxy-2-hydroxymethyl-pyrrolidine-1-carbonyl)-phenyl]-1H-[1,2,3]triazol-4-yl}-1H-quinolin-2-one] | 6.85 | 7.04 |
| O=c1[nH]c2cc(F)c(F)cc2cc1-c1cn(-c2ccc(CCN3CCCC3)cc2)nn1 [A115a, 6,7-difluoro-3-{1-[4-(2-pyrrolidin-1-yl-ethyl)-phenyl]-1H-[1,2,3]triazol-4-yl}-1H-quinolin-2-one] | 5.82 | 6.80 |
| O=C(c1ccc(-n2cc(-c3cc4cc(F)c(F)cc4[nH]c3=O)nn2)cc1)N1C[C@H]2CNC[C@H]2C1 [A307, 6,7-difluoro-3-{1-[4-((cis)-hexahydro-pyrrolo[3,4-c]pyrrole-2-carbonyl)-phenyl]-1H-[1,2,3]triazol-4-yl}-1H-quinolin-2-one] | 6.62 | 7.77 |
| O=C1CNCCN1c1ccc(-n2cc(-c3cc4cc(F)c(F)cc4[nH]c3=O)nn2)cc1 [A145, 6,7-difluoro-3-{1-[4-(2-oxo-piperazin-1-yl)-phenyl]-1H-[1,2,3]triazol-4-yl}-1H-quinolin-2-one] | 6.74 | 7.66 |
| O=C(c1ccc(-n2cc(-c3cc4cc(F)c(F)cc4[nH]c3=O)nn2)cc1)N1CCC(OCCN2CCCC2)C1 (stereo not drawn) [A225, 6,7-difluoro-3-(1-{4-[3-(2-pyrrolidin-1-yl-ethoxy)-pyrrolidine-1-carbonyl]-phenyl}-1H-[1,2,3]triazol-4-yl)-1H-quinolin-2-one] | 6.24 | 6.72 |

The next molecules have a higher pIC50 [1] than those just listed; values first:

| pIC50 [1] | pIC50 [2] | SMILES |
| --- | --- | --- |
| 7.54 | 7.28 | O=C(c1ccc(-n2cc(-c3cc4cc(F)ccc4[nH]c3=O)nn2)cc1)N1CCOC[C@@H]1CO [A216, 6-fluoro-3-{1-[4-((S)-3-hydroxymethyl-morpholine-4-carbonyl)-phenyl]-1H-[1,2,3]triazol-4-yl}-1H-quinolin-2-one] |
| 7.59 | 6.66 | CN(C)C(=O)c1ccc(-n2cc(-c3cc4cc(Cl)cnc4[nH]c3=O)nn2)cc1 [A11, 4-[4-(6-chloro-2-oxo-1,2-dihydro-[1,8]naphthyridin-3-yl)-[1,2,3]triazol-1-yl]-N,N-dimethyl-benzamide] |
| 7.77 | 7.54 | CC(C)(O)c1ccc(-n2cc(-c3cc4ccccc4[nH]c3=O)nn2)cc1 [A36, 3-{1-[4-(1-hydroxy-1-methyl-ethyl)-phenyl]-1H-[1,2,3]triazol-4-yl}-1H-quinolin-2-one] |
| 9.04 | 7.03 | CO[C@@H]1CN(C(=O)c2ccc(-n3cc(-c4cc5cc(F)ccc5[nH]c4=O)nn3)cc2)C[C@H]1OC [A263, 3-{1-[4-((3R,4R)-3,4-dimethoxy-pyrrolidine-1-carbonyl)-phenyl]-1H-[1,2,3]triazol-4-yl}-6-fluoro-1H-quinolin-2-one] |
| 8.59 | 7.52 | O=C(c1ccc(-n2cc(-c3cc4cc(Cl)ccc4[nH]c3=O)nn2)cc1)N1C[C@H](O)CO1 [A277, 6-chloro-3-{1-[4-((S)-4-hydroxy-isoxazolidine-2-carbonyl)-phenyl]-1H-[1,2,3]triazol-4-yl}-1H-quinolin-2-one] |
| 9.70 | 7.59 | O=C(c1ccc(-n2cc(-c3cc4cc(Cl)ccc4[nH]c3=O)nn2)cc1)N1CC[C@@H](F)C1 [A270, 6-chloro-3-{1-[4-((R)-3-fluoro-pyrrolidine-1-carbonyl)-phenyl]-1H-[1,2,3]triazol-4-yl}-1H-quinolin-2-one] |
| 7.96 | 7.47 | CN1CCC(Cc2ccc(-n3cc(-c4cc5cc(F)ccc5[nH]c4=O)nn3)cc2)CC1 [A371, 6-fluoro-3-{1-[4-(1-methyl-piperidin-4-ylmethyl)-phenyl]-1H-[1,2,3]triazol-4-yl}-1H-quinolin-2-one] |
| 7.38 | 7.40 | Cc1ccc2[nH]c(=O)c(-c3cn(-c4ccc(C(=O)N5CCNCC5)cc4)nn3)cc2c1 [A137, 6-methyl-3-{1-[4-(piperazine-1-carbonyl)-phenyl]-1H-[1,2,3]triazol-4-yl}-1H-quinolin-2-one] |
| 8.30 | 7.32 | Cc1ccc2cc(-c3cn(-c4ccc(C(=O)N5CCOCC5)cc4)nn3)c(=O)[nH]c2c1 [A84, 7-methyl-3-{1-[4-(morpholine-4-carbonyl)-phenyl]-1H-[1,2,3]triazol-4-yl}-1H-quinolin-2-one] |
| 9.48 | 8.28 | CN1CCN(C(=O)c2ccc(-n3cc(-c4cc5cc(Cl)ccc5[nH]c4=O)nn3)cc2)CC1=O [A96, 6-chloro-3-{1-[4-(4-methyl-3-oxo-piperazine-1-carbonyl)-phenyl]-1H-[1,2,3]triazol-4-yl}-1H-quinolin-2-one] |
| 7.96 | 7.19 | O=C1COCCN1c1ccc(-n2cc(-c3cc4ccccc4[nH]c3=O)nn2)cc1F [A32, 3-{1-[3-fluoro-4-(3-oxo-morpholin-4-yl)-phenyl]-1H-[1,2,3]triazol-4-yl}-1H-quinolin-2-one] |
| 8.05 | 7.96 | O=C(c1ccc(-n2cc(-c3cc4cc(F)ccc4[nH]c3=O)nn2)cc1)N1CCNCC1 [A53, 6-fluoro-3-{1-[4-(piperazine-1-carbonyl)-phenyl]-1H-[1,2,3]triazol-4-yl}-1H-quinolin-2-one] |
| 7.85 | 6.77 | O=C(NCCO)c1ccc(-n2cc(-c3cc4cccnc4[nH]c3=O)nn2)cc1 [A8, N-(2-hydroxy-ethyl)-4-[4-(2-oxo-1,2-dihydro-[1,8]naphthyridin-3-yl)-[1,2,3]triazol-1-yl]-benzamide] |
| 7.39 | 7.82 | CN(C)C[C@H]1CCN(C(=O)c2ccc(-n3cc(-c4cc5cc(F)ccc5[nH]c4=O)nn3)cc2)C1 [A334, 3-{1-[4-((R)-3-dimethylaminomethyl-pyrrolidine-1-carbonyl)-phenyl]-1H-[1,2,3]triazol-4-yl}-6-fluoro-1H-quinolin-2-one] |
